Data from ChEMBL document CHEMBL4321854, “Discovery of a First-in-Class Mitogen-Activated Protein Kinase Kinase 1/2 Degrader” (J Med Chem, 2019).
The source made the active and inactive calls. The rule behind the calls is not given here.

Legend:
[1] = biological target: T1, von Hippel-Lindau disease tumor suppressor/Dual specificity mitogen-activated protein kinase kinase 1 (Homo sapiens) (UniProt Q02750+P40337); assay: Protac activity against VHL/MEK1 in human SK-MEL-28 cells harboring with BRAF V600E variant assessed as degradation of MEK1 at 3 to 5 uM after 24 hrs by Western blot analysis; format: cell-based
[2] = biological target: T2, von Hippel-Lindau disease tumor suppressor/Dual specificity mitogen-activated protein kinase kinase 2 (Homo sapiens) (UniProt P36507+P40337); assay: Protac activity against VHL/MEK2 in human COLO205 cells harboring with BRAF V600E variant assessed as degradation of MEK2 at 3 to 5 uM after 24 hrs by Western blot analysis; format: cell-based
[3] = biological target: T1, von Hippel-Lindau disease tumor suppressor/Dual specificity mitogen-activated protein kinase kinase 1 (Homo sapiens); assay: Protac activity against VHL/MEK1 in human UACC257 cells harboring with BRAF V600E variant assessed as degradation of MEK1 at 3 to 5 uM uM after 24 hrs by Western blot analysis; format: cell-based
[4] = biological target: T3, von Hippel-Lindau disease tumor suppressor/Dual specificity mitogen-activated protein kinase kinase 2/Dual specificity mitogen-activated protein kinase kinase 1 (Homo sapiens) (UniProt P36507+Q02750+P40337); assay: Protac activity against VHL/MEK1/2 in human UACC257 cells harboring with BRAF V600E variant assessed as reduction in phosphorylation of MEK at S218/222 residues after 24 hrs by Western blot analysis; format: cell-based
HT-29 [5] = assay: Effect on total ERK protein expression in human HT-29 cells at 0.001 to 5 uM after 24 hrs by Western blot analysis; format: functional, cell-based
SK-MEL-28 [6] = assay: Effect on total ERK protein expression in human SK-MEL-28 cells at 0.001 to 5 uM after 24 hrs by Western blot analysis; format: functional, cell-based
COLO 205 = assay: Effect on total ERK protein expression in human COLO205 cells at 0.001 to 5 uM after 24 hrs by Western blot analysis; format: functional, cell-based
[7] = biological target: T3, von Hippel-Lindau disease tumor suppressor/Dual specificity mitogen-activated protein kinase kinase 2/Dual specificity mitogen-activated protein kinase kinase 1 (Homo sapiens); assay: Protac activity against VHL/MEK1/2 in human HT-29 cells harboring with BRAF V600E variant assessed as reduction in phosphorylation of ERK at T202/Y204 residues at 0.1 to 0.3 uM by Western blot analysis; format: cell-based; details: TDE = time-dependent effect
[8] = biological target: T1, von Hippel-Lindau disease tumor suppressor/Dual specificity mitogen-activated protein kinase kinase 1 (Homo sapiens); assay: Protac activity against VHL/MEK1 in human HT-29 cells harboring with BRAF V600E variant assessed as degradation of MEK1 at 0.3 uM after 3 to 144 hrs by Western blot analysis; format: cell-based
[9] = biological target: T1, von Hippel-Lindau disease tumor suppressor/Dual specificity mitogen-activated protein kinase kinase 1 (Homo sapiens); assay: Protac activity against VHL/MEK1 in human SK-MEL-28 cells harboring with BRAF V600E variant assessed as degradation of MEK1 by measuring MEK1 protein level at 0.3 uM pretreated with MEK1/2 inhibitor, PD0325901 for 2 hrs followed by incubation with compound for 10 hrs by Western blot analysis; format: cell-based
[10] = biological target: T2, von Hippel-Lindau disease tumor suppressor/Dual specificity mitogen-activated protein kinase kinase 2 (Homo sapiens); assay: (§1) Protac activity against VHL/MEK2 in human SK-MEL-28 cells harboring with BRAF V600E variant assessed as degradation of MEK2 by measuring MEK2 protein level at 0.3 uM pretreated with MEK1/2 inhibitor, PD0325901 for 2 hrs followed by incubation with compound for 10 hrs by Western blot analysis; format: cell-based
[11] = biological target: T3, von Hippel-Lindau disease tumor suppressor/Dual specificity mitogen-activated protein kinase kinase 2/Dual specificity mitogen-activated protein kinase kinase 1 (Homo sapiens); assay: Protac activity against VHL/MEK1/2 in human HT-29 cells harboring with BRAF V600E variant assessed as phosphorylation of MEK at S218/222 residues at 0.3 uM pretreated with MEK1/2 inhibitor, PD0325901 for 2 hrs followed by incubation with compound for 2 hrs by Western blot analysis; format: cell-based
[12] = biological target: T2, von Hippel-Lindau disease tumor suppressor/Dual specificity mitogen-activated protein kinase kinase 2 (Homo sapiens); assay: Protac activity against VHL/MEK2 in human HT-29 cells harboring with BRAF V600E variant assessed as degradation of MEK2 by measuring MEK2 protein level at 0.3 uM pretreated with VHL ligand, VH 032 for 2 hrs followed by incubation with compound for 10 hrs by Western blot analysis; format: cell-based
[13] = biological target: T3, von Hippel-Lindau disease tumor suppressor/Dual specificity mitogen-activated protein kinase kinase 2/Dual specificity mitogen-activated protein kinase kinase 1 (Homo sapiens); assay: Protac activity against VHL/MEK1/2 in human SK-MEL-28 cells harboring with BRAF V600E variant assessed as in phosphorylation of MEK at S218/222 residues at 0.3 uM pretreated with VHL ligand, VH 032 for 2 hrs followed by incubation with compound for 10 hrs by Western blot analysis; format: cell-based
[14] = biological target: T3, von Hippel-Lindau disease tumor suppressor/Dual specificity mitogen-activated protein kinase kinase 2/Dual specificity mitogen-activated protein kinase kinase 1 (Homo sapiens); assay: Protac activity against VHL/MEK1/2 in human SK-MEL-28 cells harboring with BRAF V600E variant assessed as phosphorylation of ERK at T202/Y204 residues at 0.3 uM pretreated with VHL ligand, VH 032 for 2 hrs followed by incubation with compound for 10 hrs by Western blot analysis; format: cell-based
[15] = biological target: T1, von Hippel-Lindau disease tumor suppressor/Dual specificity mitogen-activated protein kinase kinase 1 (Homo sapiens); assay: Protac activity against VHL/MEK1 in human SK-MEL-28 cells harboring with BRAF V600E variant assessed as degradation of MEK1 by measuring MEK1 protein level at 0.3 uM pretreated with proteasome inhibitor, MG-132 for 2 hrs followed by incubation with compound for 10 hrs by Western blot analysis; format: cell-based
[16] = biological target: T2, von Hippel-Lindau disease tumor suppressor/Dual specificity mitogen-activated protein kinase kinase 2 (Homo sapiens); assay: Protac activity against VHL/MEK2 in human SK-MEL-28 cells harboring with BRAF V600E variant assessed as degradation of MEK2 by measuring MEK2 protein level at 0.3 uM pretreated with proteasome inhibitor, MG-132 for 2 hrs followed by incubation with compound for 10 hrs by Western blot analysis; format: cell-based
[17] = biological target: T2, von Hippel-Lindau disease tumor suppressor/Dual specificity mitogen-activated protein kinase kinase 2 (Homo sapiens); assay: as §1, with “NEDD8-activating enzyme” for “MEK1/2”, “MLN4924” for “PD0325901”; format: cell-based
[18] = biological target: T4, von Hippel-Lindau disease tumor suppressor/Leukocyte receptor cluster member 8 (Homo sapiens) (UniProt P40337+Q96PV6); assay: Protac activity against VHL/LENG8 in human HT-29 cells harboring with BRAF V600E variant assessed as reduction in LENG8 protein level at 0.1 uM after 10 hrs by LC-MS based Volcano plot analysis; format: cell-based
[19] = biological target: von Hippel-Lindau disease tumor suppressor/Cullin-9 (Homo sapiens) (UniProt P40337+Q8IWT3); assay: Protac activity against VHL/cullin9 in human HT-29 cells harboring with BRAF V600E variant assessed as cullin9 protein level at 0.1 uM after 10 hrs by Western blot analysis; format: cell-based
[20] = biological target: T4, von Hippel-Lindau disease tumor suppressor/Leukocyte receptor cluster member 8 (Homo sapiens); assay: Protac activity against VHL/LENG8 in human HT-29 cells harboring with BRAF V600E variant assessed as LENG8 protein level at 0.1 uM after 10 hrs by Western blot analysis; format: cell-based
HT-29 [21] = assay: Antiproliferative activity against human HT-29 cells assessed as reduction in cell growth after 3 days by MTT assay; format: functional
SK-MEL-28 [22] = assay: Inhibition of colony formation in human SK-MEL-28 cells at 10 to 100 nM supplemented with fresh medium containing compound every 3 days for 14 days by crystal violet staining based assay; format: functional, cell-based
[23] = Ratio of Plasma concentration in Swiss albino mouse at 50 mg/kg, ip measured after 8 hrs to GI50 for antiproliferative activity against human SK-MEL-28 cells; format: organism-based; details: in vivo
[24] = biological target: T1, von Hippel-Lindau disease tumor suppressor/Dual specificity mitogen-activated protein kinase kinase 1 (Homo sapiens); assay: Protac activity against VHL/MEK1 in human HT-29 cells harboring with BRAF V600E variant assessed as degradation of MEK1 at 0.1 to 0.3 uM by Western blot analysis; format: cell-based; details: TDE = time-dependent effect
[25] = biological target: T1, von Hippel-Lindau disease tumor suppressor/Dual specificity mitogen-activated protein kinase kinase 1 (Homo sapiens); assay: Protac activity against VHL/MEK1 in human SK-MEL-28 cells harboring with BRAF V600E variant assessed as degradation of MEK1 at 0.1 to 0.3 uM by Western blot analysis; format: cell-based; details: TDE = time-dependent effect

T1 sequence (P40337 whole entry, looked up): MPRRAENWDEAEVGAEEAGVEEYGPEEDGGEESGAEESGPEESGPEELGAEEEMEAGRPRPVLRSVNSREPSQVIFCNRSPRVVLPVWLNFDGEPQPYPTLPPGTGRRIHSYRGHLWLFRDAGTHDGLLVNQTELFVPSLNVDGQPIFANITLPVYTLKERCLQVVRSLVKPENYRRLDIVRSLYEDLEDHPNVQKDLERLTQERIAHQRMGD
T1 sequence (Q02750 whole entry, looked up): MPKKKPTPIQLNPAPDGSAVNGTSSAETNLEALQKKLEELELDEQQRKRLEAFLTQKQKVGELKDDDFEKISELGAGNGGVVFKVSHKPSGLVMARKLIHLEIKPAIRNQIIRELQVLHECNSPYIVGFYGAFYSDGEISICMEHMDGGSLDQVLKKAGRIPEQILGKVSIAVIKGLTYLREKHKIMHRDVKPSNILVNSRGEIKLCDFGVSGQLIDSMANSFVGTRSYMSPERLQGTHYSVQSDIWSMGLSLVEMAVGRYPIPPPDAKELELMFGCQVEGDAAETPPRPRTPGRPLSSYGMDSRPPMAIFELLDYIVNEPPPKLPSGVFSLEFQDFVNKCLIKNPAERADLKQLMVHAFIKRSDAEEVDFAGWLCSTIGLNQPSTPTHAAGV
T2 sequence (P36507 whole entry, looked up): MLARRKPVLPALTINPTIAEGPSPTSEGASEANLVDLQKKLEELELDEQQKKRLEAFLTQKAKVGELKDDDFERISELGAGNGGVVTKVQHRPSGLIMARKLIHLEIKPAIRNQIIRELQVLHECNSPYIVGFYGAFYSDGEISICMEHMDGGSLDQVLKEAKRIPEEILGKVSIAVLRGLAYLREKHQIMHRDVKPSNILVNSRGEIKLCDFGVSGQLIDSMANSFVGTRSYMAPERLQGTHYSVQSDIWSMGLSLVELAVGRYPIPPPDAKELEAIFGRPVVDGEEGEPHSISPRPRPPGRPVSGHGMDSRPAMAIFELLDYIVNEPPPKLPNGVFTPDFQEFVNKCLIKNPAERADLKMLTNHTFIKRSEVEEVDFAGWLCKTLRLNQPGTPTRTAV
T2 sequence (P40337 whole entry, looked up): as the sequence (P40337 whole entry, looked up) above
T3 sequence (P36507 whole entry, looked up): as the sequence (P36507 whole entry, looked up) above
T3 sequence (P40337 whole entry, looked up): as the sequence (P40337 whole entry, looked up) above
T3 sequence (Q02750 whole entry, looked up): as the sequence (Q02750 whole entry, looked up) above
T4 sequence (P40337 whole entry, looked up): as the sequence (P40337 whole entry, looked up) above
T4 sequence (Q96PV6 whole entry, looked up): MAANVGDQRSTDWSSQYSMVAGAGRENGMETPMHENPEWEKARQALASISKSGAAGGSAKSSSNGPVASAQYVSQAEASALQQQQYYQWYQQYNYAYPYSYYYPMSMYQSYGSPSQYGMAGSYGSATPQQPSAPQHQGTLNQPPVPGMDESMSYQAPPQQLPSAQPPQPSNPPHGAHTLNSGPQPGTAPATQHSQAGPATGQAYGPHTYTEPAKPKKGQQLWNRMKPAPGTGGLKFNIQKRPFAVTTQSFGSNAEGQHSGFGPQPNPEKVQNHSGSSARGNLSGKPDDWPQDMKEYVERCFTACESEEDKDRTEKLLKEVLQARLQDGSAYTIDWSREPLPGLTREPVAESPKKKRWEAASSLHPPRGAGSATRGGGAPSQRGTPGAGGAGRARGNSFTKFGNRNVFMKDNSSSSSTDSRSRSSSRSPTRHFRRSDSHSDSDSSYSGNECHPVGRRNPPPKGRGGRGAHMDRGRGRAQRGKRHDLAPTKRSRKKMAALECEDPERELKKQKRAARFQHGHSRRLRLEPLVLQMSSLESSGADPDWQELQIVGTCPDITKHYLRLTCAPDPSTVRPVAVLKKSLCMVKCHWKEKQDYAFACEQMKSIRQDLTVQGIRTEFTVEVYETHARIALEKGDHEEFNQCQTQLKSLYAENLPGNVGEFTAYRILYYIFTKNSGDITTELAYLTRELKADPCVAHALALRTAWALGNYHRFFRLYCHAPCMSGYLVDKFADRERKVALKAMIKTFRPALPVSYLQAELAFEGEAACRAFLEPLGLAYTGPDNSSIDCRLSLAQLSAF

For `Cc1ncsc1-c1ccc([C@H](C)NC(=O)[C@@H]2C[C@@H](O)CN2C(=O)[C@@H](NC(=O)CCCCCCCCCCNCCCONC(=O)c2ccc(F)c(F)c2Nc2ccc(I)cc2F)C(C)(C)C)cc1`, the Activity [1] was “Active”, the Activity [2] was “Active” and the Activity [3] was “Active”. For the same compound, the Activity [4] was “Dose-dependent effect”, the Activity (HT-29 [5]) was “inactive” and the Activity (SK-MEL-28 [6]) was “inactive”. The Activity (COLO 205) was “inactive”, the Activity [7] was “Tde” and the Activity [8] was “Active”. The Activity [9] was “inactive”, the Activity [10] was “inactive” and the Activity [11] was “inactive”. The Activity [12] was “inactive”, the Activity [13] was “inactive” and the Activity [14] was “inactive”. For the same compound, the Activity [15] was “inactive”, the Activity [16] was “inactive” and the Activity [17] was “inactive”. For the same compound, the Activity [18] was “Active”, the Activity [19] was “inactive” and the Activity [20] was “inactive”. For the same compound, the “growth inhibition (GI)” value (HT-29 [21]) was “Dose-dependent effect”, the GI50 (HT-29 [21]; HT-29, 72 h) was 130 nM and the inhibition (SK-MEL-28 [22]) was “Active”. The Ratio [23] was 3 to 20, the Activity [24] was “Tde” and the Activity [25] was “Tde”.
